From patent US11202789B2, “Method of treating glycogen storage disease” (Viking Therapeutics, Inc., priority 2016, dated 2021) come the findings set out here.

The data set has as its system male ob/ob mice. Put plainly: 9-week efficacy and safety study in male ob/ob mice. The data set is classed as in vivo. The settings on record: T3 100 nmole/kg/day SC. The method, then: The objective of this study was to evaluate the efficacy and safety of Compound 2 treatment at doses of 3, 10, and 30 mg/kg/day for 9 weeks in male ob/ob mice. 3,3′,5-Triiodo-L-thyronine (T3) was used as a comparator in this study.
Methods: Seventy-eight adult male ob/ob mice were assigned to six different treatment groups (n=6-24/group). Animals were dosed daily with either vehicle [1% carboxymethylcellulose (CMC) in water, PO], T3 [(100 nmole/kg/day in aqueous solution, subcutaneous (SC)], or Compound 2 [3, 10 or 30 mg/kg/day in 1% CMC, PO]. Blood glucose and plasma cholesterol were measured weekly in all animals. Subsets of animals in the vehicle-treated and 30 mg/kg/day Compound 2-treated groups were sacrificed after 3, 6 and 9 weeks of treatment to analyze the temporal effects of Compound 2 on liver weight and liver triglyceride levels. Liver triglyceride levels, liver glycogen content, heart, liver and epididymal fat pad weights, and plasma clinical chemistry parameters were measured at sacrifice.

SMILES strings stand for the structures.

With `N[C@@H](Cc1cc(I)c(Oc2ccc(O)c(I)c2)c(I)c1)C(=O)O` [Compound T3, 3,3′,5-Triiodo-L-thyronine, reference compound], the ALT levels result is reported as “decreased”, the “increased plasma triglyceride levels” value is around 56%, the plasma albumin levels entry was “decreased” and the plasma calcium levels result is “decreased”. The “total plasma protein levels” value was “decreased”. The liver weight result (9 weeks) is “lower”. For the same molecule, the blood glucose levels entry (all time points, vs vehicle) is “similar”. Besides, the “total plasma cholesterol lower” value (at 9 weeks, vs vehicle) was around 66%. Also, under “vs vehicle”, the “terminal liver glycogen levels” value is listed as “similar” and the “terminal liver triglyceride levels” value is “similar”.
